Common to all, as to test: normalised viability (% of control), CellTiter-Blue; higher = more viable cells (100 = DMSO, 0 = benzethonium chloride kill control)
Holding throughout (settings): incubation time: 72 h
(In general: Alamar Blue is a resazurin reagent that responds to reducing activity.)

One assay deals with SK-BR-3. The method, then:
(§1)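 DSRT, CellTiter-Blue viability, 72 h incubation. Signal is normalised to DMSO and benzethonium chloride controls. Value is the normalised response at dose 1.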

For another assay, the system named is MDA-MB-436. As to the method:
as §1

The next assay relates to Hs578T. As to the method:
as §1

In the next assay the test system is CAL-85-1. The method, then: as §1
The subject of a further assay is DU-4475. As to the method: as §1
The subject of a further assay is BT-549. The method, then:
as §1

For a further assay, the system named is MDA-MB-468. As to the method: as §1
For a further assay, the system named is CAL-51. The method, then: as §1
For a further assay, the system named is MDA-MB-453. The method, then:
as §1

For a further assay, the system named is BT-474. The method, then:
as §1

The next assay deals with HCC1599. As to the method:
as §1

In the next assay the test system is MDA-MB-231. As to the method: as §1
For a further assay, the system named is HCC1937. As to the method:
as §1

The test system of a further assay is HDQ-P1. As to the method: as §1
The next assay concerns HCC1143. The method, then: as §1
In another assay the test system is MFM-223. As to the method:
as §1

A further assay has as its system CAL-148. The method, then:
as §1

For a further assay, the system named is CAL-120. The method, then: as §1

Regarding `N[C@@H](Cc1ccc(N(CCCl)CCCl)cc1)C(=O)O` [Melphalan] (0.099 nM), the normalised viability turned out to be 94% with SK-BR-3; 89.8% with MDA-MB-436; 93.8% in the assay with Hs578T; 85.7% in the assay on CAL-85-1; 99.8% in the assay with DU-4475; 107% in the assay on BT-549. For the same compound, the normalised viability with MDA-MB-468 is 102%; in the assay with CAL-51 it was 100%; with MDA-MB-453, 97.8%; in the assay with BT-474, 85.2%; with HCC1599 it was 96.1%; in the assay with MDA-MB-231, 95.1%. Also, the normalised viability in the assay with HCC1937 was 87.2%; in the assay on HDQ-P1, 107%; in the assay with HCC1143, 84.7%; in the assay on MFM-223, 94.3%; in the assay with CAL-148, 112%; in the assay on CAL-120 it was 82.9%.

Regarding `Cc1c(C(=O)Nc2ccc(N3C[C@@H](C)O[C@@H](C)C3)nc2)cccc1-c1ccc(OC(F)(F)F)cc1` [NVP-LDE225] (1 nM), the normalised viability with SK-BR-3 came out at 91.5%; with MDA-MB-436, 79.5%; in the assay on Hs578T it was 111%; with CAL-85-1 it was 99.5%; in the assay with DU-4475 it was 102%; in the assay on BT-549, 87.2%. In addition, the normalised viability with MDA-MB-468 is 129%; with CAL-51, 103%; in the assay with MDA-MB-453 it was 108%; in the assay on BT-474, 109%; in the assay on HCC1599, 85.8%; with MDA-MB-231, 98%. Moreover, the normalised viability with HCC1937 turned out to be 96.4%; with HDQ-P1, 70.9%; with HCC1143, 105%; in the assay on MFM-223, 96.4%; in the assay with CAL-148, 92.9%; in the assay on CAL-120, 93.1%.

The values above are taken from the supplement of paper PMC4862054.
